According to patent US10266484B2, “Biodegradable lipids for the delivery of active agents” (ALNYLAM PHARMACEUTICALS, INC., priority 2010, dated 2019):

What was measured:
[1] = Lipid concentration and pharmacokinetics in the plasma of mice after intravenous administration; type: in vivo; settings: mouse, male C57BL mice, lipid dose 0.3 mg/kg
Experimental: (§1) A study was conducted to determine the lipid profile and tissue clearance in mice for cationic lipids according to the present invention.
(§2) Male mice (C57BL, 20-30 g) were separated into four groups and administered (intravenously) either Compound 1, 2 or 3 of the present invention, or a Reference Lipid, as shown below in Table 20.
(§3) The mice were not fasted. Blood, liver and spleen samples were collected (two samples per time point per group) at 0.17, 8, 24, 72, 168, 336 and 672 hours post dose.

[2] = Study to determine lipid profiles and tissue clearance in mice (overall conclusion); type: in vivo, mice (C57BL); settings: liver, spleen and plasma (FIGS. 1, 3, 4; Tables 22, 24, 26)
Experimental: as §1, §2, §3

[3] = Lipid concentration and pharmacokinetics in the liver of mice after intravenous administration; type: in vivo; settings: mouse, male C57BL mice, lipid dose 0.3 mg/kg
Experimental: as §1, §2, §3

[4] = Concentration of metabolites of compounds 1-3 in the plasma of mice; type: in vivo, mice (C57BL)
Experimental: as §2, §3
All measurements after 24 hours (including those taken at 72, 168, 336, and 672 hours post-administration) were below the level of quantification (BLQ).

[5] = Concentration of metabolites of compounds 1-3 in the spleen of mice; type: in vivo, mice (C57BL)
Experimental: as §2, §3

[6] = Concentration of mono-acid and di-acid metabolites in the liver of mice; type: in vivo, mice (C57BL); settings: 0.3 mg/kg intravenous
Experimental: as §2, §3
The concentration of these metabolites was measured in the liver. All measurements after 24 hours (including those taken at 72, 168, 336, and 672 hours post-administration) were below the level of quantification (BLQ).

[7] = Lipid concentration and pharmacokinetics in the spleen of mice after intravenous administration; type: in vivo; settings: mouse, male C57BL mice, lipid dose 0.3 mg/kg; for MRT last: read-out: MRT0-t (mean residence time)
Experimental: as §1, §2, §3

[8] = read-out: MRT0-t (mean residence time)

SMILES | AUC [1] | Cmax [1] | Tissue clearance and activity compared to the Reference Lipid [2] | AUC [3] | Cmax [3] | Concentration of mono-acid metabolite in the plasma ([4]; 8 hr post dose) | Concentration of di-acid metabolite in the plasma ([4]; 24 hr post dose) | Concentration of mono-acid metabolite in the plasma ([4]; 24 hr post dose) | Concentration of di-acid metabolite in the spleen ([5]; 24 hr post dose) | Concentration of mono-acid metabolite in the spleen ([5]; 24 hr post dose) | Concentration of mono-acid metabolite in the spleen ([5]; 72 hr post dose) | Concentration of mono-acid metabolite in the spleen ([5]; 168 hr post dose) | Concentration of mono-acid metabolite in the spleen ([5]; 336 hr post dose) | Concentration of di-acid metabolite in the spleen ([5]; 672 hr post dose) | Concentration of mono-acid metabolite in the spleen ([5]; 672 hr post dose) | Di-acid metabolite concentration ([6]; 24 hr post dose) | Mono-acid metabolite concentration ([6]; 24 hr post dose) | AUC [7] | Cmax [7] | MRT last [7] | also measured
CCCCCC/C=C\COC(=O)CCCCCCCC(CCCCCCCC(=O)OC/C=C\CCCCCC)OC(=O)CCCN(C)C [Compound 1, di((Z)-non-2-en-1-yl) 9-((4-(dimethylamino)butanoyl)oxy)heptadecanedioate] | 155 µg·h/mL | 38.8 µg/mL | dramatically improved tissue clearance and activity | 4.59 µg·h/mL | 1.14 µg/mL | BLQ | BLQ | BLQ | BLQ | BLQ | BLQ | BLQ | BLQ | BLQ | BLQ | BLQ | BLQ | 42 µg·h/mL | 7.46 µg/mL | 2.8 h | Concentration of di-acid metabolite in the plasma ([4]; 8 hr post dose): BLQ; Concentration of di-acid metabolite in the spleen ([5]; 8 hr post dose): BLQ; Concentration of di-acid metabolite in the spleen ([5]; 72 hr post dose): BLQ; Concentration of di-acid metabolite in the spleen ([5]; 168 hr post dose): BLQ; Concentration of di-acid metabolite in the spleen ([5]; 336 hr post dose): BLQ
CCOC(=O)CCCC/C=C\CCCCCCCCC(CCCCCCCC/C=C\CCCCC(=O)OCC)OC(=O)CCCN(C)C [Compound 2] | 116 µg·h/mL | 28.8 µg/mL | dramatically improved tissue clearance and activity | 0.436 µg·h/mL | 0.118 µg/mL | – | BLQ | BLQ | BLQ | – | BLQ | BLQ | BLQ | BLQ | BLQ | BLQ | BLQ | 238 µg·h/mL | 13.6 µg/mL | 11.1 h | Concentration of di-acid metabolite in the spleen ([5]; 72 hr post dose): BLQ; Concentration of di-acid metabolite in the spleen ([5]; 168 hr post dose): BLQ; Concentration of di-acid metabolite in the spleen ([5]; 336 hr post dose): BLQ
COC(=O)CCCCCCC/C=C\CCCCCCCCC(CCCCCCCC/C=C\CCCCCCCC(=O)OC)OC(=O)CCCN(C)C [Compound 3] | 122 µg·h/mL | 30.6 µg/mL | dramatically improved tissue clearance and activity | – | 0.208 µg/mL | BLQ | – | BLQ | – | BLQ | BLQ | BLQ | BLQ | BLQ | BLQ | BLQ | BLQ | 18.7 µg·h/mL | 4.37 µg/mL | 0.7 h | Di-acid metabolite concentration ([6]; 8 hr post dose): BLQ; Mono-acid metabolite concentration ([6]; 8 hr post dose): BLQ
CCCCC/C=C\C/C=C\CCCCCCCCOCC(CN(C)C)OCCCCCCCC/C=C\C/C=C\CCCCC (centres unmarked) [Reference Lipid, reference compound] | 63.8 µg·h/mL | 2.11 µg/mL | – | 6950 µg·h/mL | 22.4 µg/mL | – | – | – | – | – | – | – | – | – | – | – | – | 3430 µg·h/mL | 9.15 µg/mL | 230 h | MRT last [1, 8]: 201 h; MRT last [3, 8]: 221 h
